Where “and” joins values, the source holds several entries; their conditions need not be identical. Equal values may be shown once.
Experiments:
[1] = Drug product stability (film-coated tablets, tablet cores, blends, binary mixtures): content of DMP433 on storage; assay type: physicochemical
Description: The experiments were packed in aluminium bags.
Blends and compressed (compacted) mixtures of drug substance with the excipients crospovidone (Type A) and microcrystalline cellulose with standard and low nitrite content, and low substituted hydroxypropyl cellulose (L-HPC) from the drug product composition were subjected to accelerated storage conditions (40° C. and 50° C.) for periods up to 1 month. […]
Binary mixtures were prepared in the same portion as present in the formulation. The samples were packed in alu bags. […]
2.8. Sample solution-ribociclib FCT (KISQALI®) • 1. Grind and homogenize 10 tablets (IKA mill can be used). • 2. Into a 10 mL amber volumetric flask accurately about 180 mg of tablet powder (corresponding to 80 mg of ribociclib free base). • 3. Add solvent (50% MeOH) up to ⅔ of flask volume. Vortex the sample for 1 minute and shake on a mechanical shaker for at least 15 min. Fill to volume with solvent and use vortex for 1 minute. • 4. Filter through 0.2 μm PVDF or PTFE filter into a HPLC amber vial, discard the first 0.5 mL. […]
The content of DMP433 was analysed. […]

[2] = Validation of the HPLC-HRMS method for N-nitroso-ribociclib (precision, accuracy, linearity, LOQ, stability of standard and sample solutions)
Description: For the purpose of this validation only, the 100% target limit was set at 3.75 ppm (1500 ng NRR/400 mg ribociclib free base).
Six replicates of the “Sample solution” were prepared according to the procedure described above and tested on the same day. The results are expressed as ppm of NNR with regard to ribociclib free base (μg NNR/g ribociclib free base)
Two series of six replicates of the “Sample solutions” were prepared according to the procedure described above and tested by two different analysts, on two different days, using different LC/MS systems and different columns. The results are expressed as ppm of NNR with regard to ribociclib free base (μg NNR/g ribociclib free base)
Three replicates of calibration standard solutions L1 (c=0.5 ng/ml) and L6 (c=100 ng/ml) were prepared according to the procedure described above. Solutions were stored in the dark at room temperature (autosampler (AS) vials). After a period of time, the solutions were reanalyzed. The stability of standard solutions is evaluated by determining the relative difference between the responses […] The results are expressed as concentration in ng/ml, determined from calibration curve in each sequence (time point).
Three replicates of Sample solution were prepared according to AP. The replicates were analysed at t=0 h and after app. 24 hours and 48 hours of storage in vials AS at room temperature. The results are expressed as ppm of NNR wrt ribociclib free base. (μg NNR/g ribociclib free base).
In addition, FCT samples stored in flasks on the bench were filtered at defined time point and analysed. For 48 hours stability, composite samples (from Accuracy) were used.
Sample solutions were prepare according to the procedure described above using 10 mL, 25 mL and 50 mL flasks, three replicates for each volume. Results for 25 mL and 50 mL were compared to 10 mL volume that is prescribed in the AP. The results are expressed as ppm of NNR with regard to ribociclib free base (μg NNR/g ribociclib free base)
For ribociclib FCT, one composite sample preparation and three replicates of spiked composite sample solutions (prepared as described above) were prepared and tested on the same day.
The samples (drug substance or composite sample) were spiked at 0.5 ng/ml (0.0625 ppm), 30 ng/mlL (3.75 ppm) and 100 ng/ml (12.5 ppm) levels. Amount of NNR present in the unspiked sample was subtracted and recoveries were calculated as a ratio between amounts found and amounts added.
In each sequence, calibration solution L1 was injected six times as part of SST test (Repeatability of injections) and the average response was taken for the calculation of calibration curve. Linear regression was weighed with 1/amount.
Amount of NNR present in the unspiked sample was subtracted (see above) and RSD of corrected amounts calculated.

[3] = DMP433 (N-nitroso-ribociclib) content in ribociclib base (B10) and ribociclib succinate (B12, drug substance) batches and process experiments, LC-MS/MS or HPLC-HRMS; assay type: physicochemical; conditions: for DMP433 in LEE011-B12 (IP): B10 Raybow batch 805193A078
Excerpt: The method of testing for the presence and/or total amount of nitrosamines (such as the presence and/or total amount of N-nitroso-ribociclib in free or salt form) that is used in the methods of the invention may be any method which allows for the detection of nitrosamines in a composition. For example, the method may involve the Griess test described above. In such a method, the nitrosamines may be first denitrosated (e.g., by photolysis) to form a nitrite, which is then detected in the Griess test. Alternatively, the method may include high performance liquid chromatography (HPLC)- and/or gas chromatography (GC)-mass spectroscopy. An example of a method of testing for the presence and amount of nitrosamines (namely N-nitroso-ribociclib) is provided herein as Example 14. […]
2.7. […] Dissolve the substance using vortex and fill to volume with solvent (50% MeOH). • 3. Filter through 0.2 μm PVDF (polyvinylidene difluoride) or PTFE (polytetrafluoroethylene) filter into a HPLC amber vial, discard the first 0.5 ml.
A calibration curve for DMP433 is created, using calibration standard solutions L1-L6, and expressing the relationship between responses (peak areas) and standard concentrations (ng/ml). For L1, the average of 6 injections is used. Linear regression is weighed with 1/amount. […]

[4] = NDMA content in LEE011-B12 (IP) after ion exchange resin treatment (option 2 process); assay type: physicochemical; conditions: (n.d.)
[5] = Nitrite content (ion chromatography; LC-FLD with DAN derivatisation; Griess test) in drug substance, intermediates, reagents, solvents, filters, excipients; assay type: physicochemical; conditions: Raybow batch 805193A078, starting material of resin loading experiments
Summary of the method: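 Nitrite measured by Griess reaction (sulfanilamide diazotisation, N-(1-naphthyl)ethylenediamine azo coupling, spectrophotometric read) or by DAN derivatisation with C18 HPLC-fluorescence (10 mM KH2PO4 pH 8.0/methanol). About 1000 mg sample in 10 mL methanol/water 1:1; comparison standard ≈100 ppb nitrite.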

[6] = DSC, heating rate 10 ° C./min (with pinhole), cited from earlier work

Q: For `CN(C)C(=O)c1cc2cnc(Nc3ccc(N4CCNCC4)cn3)nc2n1C1CCCC1.O=C(O)CCC(=O)O` [DS (B699003AA) (compact)], which DMP433 content ([1]; T0, binary mixtures/blends/compacts, alu bags) is on record?
A: 0.7 ppm

Q: What about the DMP433 content ([1]; T 1 m (50° C./75% RH), alu bags) of the same compound?
A: 1.1 ppm

Q: What about the DMP433 content ([1]; T 2 w (40° C./75% RH), alu bags) of the same compound?
A: 0.9 ppm

Q: And the DMP433 content ([1]; T 2 w (50° C./75% RH), alu bags)?
A: 0.8 ppm

Q: Which results are given for `CN(C)C(=O)c1cc2cnc(Nc3ccc(N4CCNCC4)cn3)nc2n1C1CCCC1.O=C(O)CCC(=O)O` [DS (B699003AA) compact]?
A: DMP433 content ([1]; binary studies of drug substance with excipients, T0): 0.7 ppm; DMP433 content ([1]; binary studies, 40° C., T 2 Weeks): 0.9 ppm; DMP433 content ([1]; binary studies, 50° C., T 1 Month): 1.1 ppm; DMP433 content ([1]; binary studies, 50° C., T 2 Weeks): 0.8 ppm

Q: What does the source list for `CN(C)C(=O)c1cc2cnc(Nc3ccc(N4CCNCC4)cn3)nc2n1C1CCCC1.O=C(O)CCC(=O)O` [Ribociclib Succinate Drug Substance]?
A: NNR Amount found (ppm) ([2]; level S0, unspiked): 0.3328 ppm and 0.3246 ppm and 0.3256 ppm; NNR Amount found (ppm) ([2]; level S1, spiked 0.0625 ppm): 0.3754 ppm and 0.3778 ppm and 0.3796 ppm and 0.3774 ppm and 0.3781 ppm and 0.3824 ppm; NNR Amount found (ppm) ([2]; level S2, spiked 3.75 ppm): 3.5823 ppm and 3.7302 ppm and 3.8822 ppm; NNR Amount found (ppm) ([2]; level S3, spiked 12.5 ppm): 11.0295 ppm and 11.6248 ppm and 11.8859 ppm

Q: For `CN(C)C(=O)c1cc2cnc(Nc3ccc(N4CCNCC4)cn3)nc2n1C1CCCC1.O=C(O)CCC(=O)O` [Ribociclib succinate], which “depletion of DMP433 in the ribociclib succinate (B12) crystal by additional washing” value ([3]; 3 washes vs 2 washes of isopropanol) is on record?
A: about 38%

Q: And the “DMP433 in LEE011-B12 (IP)” value ([3]; resin loading vs B10 20 w/w %, option 2 process)?
A: 220 ppb

Q: And the “DMP433 in LEE011-B12 (IP)” value ([3]; resin loading vs B10 50 w/w %, wet cake)?
A: 211 ppb

Q: What about the “DMP433 in LEE011-B12 (IP)” value ([3]; resin loading vs B10 100 w/w %, wet cake) of the same compound?
A: 238 ppb

Q: And the “NDMA in LEE011-B12 (IP)” value ([4]; resin loading vs B10 20 w/w %)?
A: <100 ppb

Q: And the “NDMA in LEE011-B12 (IP)” value ([4]; resin loading vs B10 50 w/w %)?
A: <100 ppb

Q: What about the “NDMA in LEE011-B12 (IP)” value ([4]; resin loading vs B10 100 w/w %) of the same compound?
A: <100 ppb

Q: With `CN(C)C(=O)c1cc2cnc(Nc3ccc(N4CCNCC4)cn3)nc2n1C1CCCC1` [Ribociclib, 7-cyclopentyl-N, N-dimethyl-2-{[5-(piperazin-1-yl)pyridin-2-yl]amino}-7H-pyrrolo[2,3-d]pyrimidine-6-carboxamide] as the compound, how does the “DMP433 in LEE011-B10” value ([3]; Raybow batch 805193A078, starting material of resin loading experiments) read?
A: 92 ppb

Q: And the “DMP433, best result” value ([3]; isopropanol distilled over ascorbic acid, B10 added last)?
A: 0.34 ppm

Q: And the “Nitrite in LEE011-B10” value [5]?
A: 257 ppb

Q: With `CN(C)C(=O)c1cc2cnc(Nc3ccc(N4CCNCC4)cn3)nc2n1C1CCCC1.O=C(O)CCC(=O)O` [ribociclib succinate Form E] as the compound, how does the Endothermic onset [6] read?
A: 210.0 °C

Q: What about the Enthalpy ([6]; melting/decomposition, for information only) of the same compound?
A: 194.8 J/g

Q: With `CN(C)C(=O)c1cc2cnc(Nc3ccc(N4CCNCC4)cn3)nc2n1C1CCCC1.O=C(O)CCC(=O)O` [ribociclib succinate drug substance] as the compound, how does the “NNR Average (ppm), Ruggedness” value ([2]; n = 6) read?
A: 0.241 ppm

Q: What about the “NNR Total average (ppm)” value ([2]; n = 12, intermediate precision) of the same compound?
A: 0.240 ppm

Q: And the “NNR (ppm), Ruggedness, single replicate” value ([2]; second analyst, day, LC/MS system and column, replicates R1-R6)?
A: 0.287 ppm and 0.243 ppm and 0.244 ppm and 0.176 ppm and 0.262 ppm and 0.235 ppm

Source: patent US20250319032A1, “PHARMACEUTICAL COMPOSITIONS OF RIBOCICLIB” (Novartis AG, priority 2024, published 2025)
